Results reported in patent US6869941B2, “Combination of drospirenone and an estrogen sulphamate for HRT” (Schering AG, priority 2001, dated 2005).

How the values were obtained:
Assay type in all cases: physicochemical
[1] = In vitro dissolution, USP XXIII Paddle Method; details: micronized form; rapid dissolution defined as at least 70% over about 30 minutes from a 3 mg tablet in 900 ml of water at 37° C., apparatus 2 at 50 rpm
[2] = Solubility of drospirenone in water and aqueous buffers; details: water and aqueous buffers at various pH values
[3] = Chemical stability of drospirenone under acid and alkaline conditions

C[C@]12CCC(=O)C=C1[C@@H]1C[C@@H]1[C@H]1[C@@H]3[C@@H]4C[C@@H]4[C@@]4(CCC(=O)O4)[C@@]3(C)CC[C@@H]12 [Drospirenone]
dissolution of the active compound from the dosage unit in vitro [1]: rapid dissolution
solubility [2]: sparingly soluble
stability under acid conditions ([3]; acid conditions): rearranged to an inactive isomer
stability under alkaline conditions ([3]; alkaline conditions): hydrolysed
